pKd: −log10 of the molar value. The source made the active and inactive calls. No cut-off for these calls is given here.
Assays:
MC3T3-E1 [1] = experiment: Effect on osteoblast differentiation in mouse MC3T3-E1 cells assessed as change in collagen I mRNA level at 0.5 to 2 uM incubated for 7 days by qRT-PCR analysis; assay type: functional, cell-based; conditions: dose 0.5-2 µM, time 7.0 day
[2] = target: T1, Tumor necrosis factor ligand superfamily member 11 (Homo sapiens, UniProt O14788); experiment: Binding affinity to CM5 sensor chip-immobilized RANKL (unknown origin) assessed as dissociation constant by SPR analysis
T1 sequence (O14788 whole entry): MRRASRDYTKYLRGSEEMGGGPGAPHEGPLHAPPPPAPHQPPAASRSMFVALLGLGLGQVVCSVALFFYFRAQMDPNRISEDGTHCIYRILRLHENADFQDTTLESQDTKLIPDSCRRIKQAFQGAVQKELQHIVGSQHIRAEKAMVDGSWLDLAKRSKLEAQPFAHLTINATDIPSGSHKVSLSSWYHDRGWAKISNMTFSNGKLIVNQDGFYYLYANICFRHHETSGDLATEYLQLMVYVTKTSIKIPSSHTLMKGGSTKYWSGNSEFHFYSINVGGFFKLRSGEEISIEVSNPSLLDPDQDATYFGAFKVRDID

BMDM [3] = experiment: Inhibition of osteoclastogenesis in M-CSF/RANKL-induced osteoclast differentiation in C57BL/6J mouse BMDM cells assessed as decrease in NFATc1 mRNA level at 1 uM measured for 5 days by qRT-PCR analysis; assay type: functional, cell-based; conditions: time 5.0 day
BMDM [4] = experiment: Inhibition of osteoclastogenesis in M-CSF/RANKL-induced osteoclast differentiation in C57BL/6J mouse BMDM cells assessed as reduction in I-kappaB-alpha phosphorylation at 1 uM measured upto 60 mins by Western blot analysis; assay type: functional, cell-based
BMDM [5] = experiment: Inhibition of osteoclastogenesis in M-CSF/RANKL-induced osteoclast differentiation in C57BL/6J mouse BMDM cells assessed as suppression of osteoclast nuclei number measured after 7 days by F-actin ring-TRITC phalloidin staining based analysis; assay type: functional, cell-based; conditions: dose <= 2.0 µM, time 7.0 day
BMDM [6] = experiment: Inhibition of osteoclastogenesis in M-CSF/RANKL-induced osteoclast differentiation in C57BL/6J mouse BMDM cells assessed as reduction in c-Fos mRNA level measured after 5 days by qRT-PCR analysis; assay type: functional, cell-based; conditions: dose <= 2.0 µM, time 5.0 day
Mus musculus [7] = experiment: Anti-osteoporosis effect in OVX-induced osteoporosis C57BL/6 mouse model assessed as decrease in Tb.Sp value at 10 mg/kg, po administered every other day for 8 weeks by micro-CT analysis; assay type: functional, organism-based
RAW264.7 [8] = experiment: Inhibition of osteoclastogenesis in RANKL-induced osteoclast differentiation in mouse RAW264.7 cells incubated for 4 days by TRAP staining based analysis; assay type: functional, cell-based; conditions: time 4.0 day
[9] = Toxicity in OVX-induced osteoporosis C57BL/6 mouse model assessed as animal fatality at 10 mg/kg, po administered every other day for 8 weeks; assay type: organism-based; conditions: in vivo, 1344 h
BMDM [10] = experiment: Inhibition of osteoclastogenesis in M-CSF/RANKL-induced osteoclast differentiation in C57BL/6J mouse BMDM cells assessed as reduction in DC-STAMP mRNA level measured after 5 days by qRT-PCR analysis; assay type: functional, cell-based; conditions: dose <= 2.0 µM, time 5.0 day
Mus musculus [11] = experiment: Anti-osteoporosis effect in OVX-induced osteoporosis C57BL/6 mouse model assessed as increase in Tb.Th value at 10 mg/kg, po administered every other day for 8 weeks by micro-CT analysis; assay type: functional, organism-based
BMDM [12] = experiment: Inhibition of osteoclastogenesis in M-CSF/RANKL-induced osteoclast differentiation in C57BL/6J mouse BMDM cells assessed as reduction in MMP-9 level measured after 5 days by Western blot analysis; assay type: functional, cell-based; conditions: dose <= 2.0 µM, time 5.0 day
[13] = Toxicity in OVX-induced osteoporosis C57BL/6 mouse model assessed as adverse event at 10 mg/kg, po administered every other day for 8 weeks; assay type: organism-based; conditions: in vivo, 1344 h
[14] = Toxicity in OVX-induced osteoporosis C57BL/6 mouse model assessed as pathological change in heart at 10 mg/kg, po administered every other day for 8 weeks by H and E staining based analysis; assay type: organism-based; conditions: in vivo, 1344 h
[15] = Toxicity in OVX-induced osteoporosis C57BL/6 mouse model assessed as pathological change in liver at 10 mg/kg, po administered every other day for 8 weeks by H and E staining based analysis; assay type: organism-based; conditions: in vivo, 1344 h
BMDM [16] = experiment: Inhibition of osteoclastogenesis in M-CSF/RANKL-induced osteoclast differentiation in C57BL/6J mouse BMDM cells assessed as reduction in I-kappaB-alpha degradation at 1 uM measured upto 60 mins by Western blot analysis; assay type: functional, cell-based
[17] = target: T2, Tumor necrosis factor ligand superfamily member 11 (Homo sapiens) (UniProt O14788); experiment: Binding affinity to RANKL (unknown origin) incubated for 15 mins by RED-NHS dye based MST assay
T2 sequence (whole entry): T1 sequence (O14788 whole entry)

RAW264.7 [18] = experiment: Cytotoxicity against mouse RAW264.7 cells assessed as decrease in cell viability at 1 uM incubated for 48 hrs by MTT assay; assay type: toxicity, cell-based; conditions: raw264.7, 48 h
MC3T3-E1 [19] = experiment: Effect on osteoblast differentiation in mouse MC3T3-E1 cells assessed as change in BMP2 level at 0.5 to 2 uM incubated for 7 days by Western blot analysis; assay type: functional, cell-based; conditions: dose 0.5-2 µM, time 7.0 day
BMDM [20] = experiment: Inhibition of osteoclastogenesis in M-CSF/RANKL-induced osteoclast differentiation in C57BL/6J mouse BMDM cells assessed as reduction in cathepsin K mRNA level measured after 5 days by qRT-PCR analysis; assay type: functional, cell-based; conditions: dose <= 2.0 µM, time 5.0 day
MC3T3-E1 [21] = experiment: Effect on osteoblast differentiation in mouse MC3T3-E1 cells assessed as change in Runx2 mRNA level at 0.5 to 2 uM incubated for 7 days by qRT-PCR analysis; assay type: functional, cell-based; conditions: dose 0.5-2 µM, time 7.0 day
BMDM [22] = experiment: Inhibition of osteoclastogenesis in M-CSF/RANKL-induced osteoclast differentiation in C57BL/6J mouse BMDM cells assessed as reduction in p65 phosphorylation at 1 uM measured upto 60 mins by Western blot analysis; assay type: functional, cell-based
Mus musculus [23] = experiment: Anti-osteoporosis effect in OVX-induced osteoporosis C57BL/6 mouse model assessed as reduction in bone mass loss in distal femur at 10 mg/kg, po administered every other day for 8 weeks by micro-CT analysis; assay type: functional, organism-based
Mus musculus [24] = experiment: Anti-osteoporosis effect in OVX-induced osteoporosis C57BL/6 mouse model assessed as increase in BV/TV value at 10 mg/kg, po administered every other day for 8 weeks by micro-CT analysis; assay type: functional, organism-based
BMDM [25] = experiment: Inhibition of osteoclastogenesis in M-CSF/RANKL-induced osteoclast differentiation in C57BL/6J mouse BMDM cells assessed as reduction in MMP-9 mRNA level measured after 5 days by qRT-PCR analysis; assay type: functional, cell-based; conditions: dose <= 2.0 µM, time 5.0 day
BMDM [26] = experiment: Inhibition of osteoclastogenesis in M-CSF/RANKL-induced osteoclast differentiation in C57BL/6J mouse BMDM cells assessed as reduction in NFATc1 mRNA level measured after 5 days by qRT-PCR analysis; assay type: functional, cell-based; conditions: dose <= 2.0 µM, time 5.0 day
BMDM [27] = experiment: Effect in p38 level in M-CSF/RANKL-induced osteoclast differentiation in C57BL/6J mouse BMDM cells at 1 uM measured upto 60 mins by Western blot analysis; assay type: functional, cell-based
Mus musculus [28] = experiment: Anti-osteoporosis effect in OVX-induced osteoporosis C57BL/6 mouse model assessed as increase in number of osteoclasts to bone surface area ratio at 10 mg/kg, po administered every other day for 8 weeks by TRAP staining based analysis; assay type: functional, organism-based

Which Activity (MC3T3-E1 [1]) does the source give for `O=C1C([Se]c2ccccc2)=C([Se]c2ccccc2)C(=O)N1Cc1ccccc1` here?
The Activity was “No effect”.

And the pKd [2]?
Its pKd is 6.04.

And the inhibition (BMDM [3])?
The inhibition was “Active”.

And the inhibition (BMDM [4])?
The inhibition was “Active”.

And the inhibition (BMDM [5])?
Its inhibition is “Dose-dependent-effect”.

What about the inhibition (BMDM [6]) of the same compound?
The inhibition was “Dose-dependent-effect”.

What about the Activity (Mus musculus [7]) of the same compound?
The Activity was “Active; Displayed Similar Effect With That Exhibited By Alendronate”.

And the inhibition (RAW264.7 [8])?
Its inhibition is “Active”.

And the Activity [9]?
Its Activity is “Non-toxic”.

What about the inhibition (BMDM [10]) of the same compound?
The inhibition was “Dose-dependent-effect”.

What about the Activity (Mus musculus [11]) of the same compound?
The Activity was “Active; Displayed Similar Effect With That Exhibited By Alendronate”.

What about the inhibition (BMDM [12]) of the same compound?
The inhibition was “Dose-dependent-effect”.

What about the Activity [13] of the same compound?
Its Activity is “Non-toxic”.

And the Activity [14]?
The Activity was “Non-toxic”.

And the Activity [15]?
The Activity was “Non-toxic”.

What about the inhibition (BMDM [16]) of the same compound?
Its inhibition is “Active”.

What about the Activity [17] of the same compound?
Its Activity is 1.51 µM.

What about the Activity (RAW264.7 [18]) of the same compound?
The Activity was “Non-toxic”.

What about the Activity (MC3T3-E1 [19]) of the same compound?
Its Activity is “No effect”.

What about the inhibition (BMDM [20]) of the same compound?
Its inhibition is “Dose-dependent-effect”.

What about the Activity (MC3T3-E1 [21]) of the same compound?
Its Activity is “No effect”.

What about the inhibition (BMDM [22]) of the same compound?
Its inhibition is “Active”.

And the Activity (Mus musculus [23])?
The Activity was “Active; Displayed Similar Effect With That Exhibited By Alendronate”.

And the Activity (Mus musculus [24])?
Its Activity is “Active; Displayed Similar Effect With That Exhibited By Alendronate”.

What about the inhibition (BMDM [25]) of the same compound?
Its inhibition is “Dose-dependent-effect”.

And the inhibition (BMDM [26])?
Its inhibition is “Dose-dependent-effect”.

And the Activity (BMDM [27])?
The Activity was “No effect”.

And the Activity (Mus musculus [28])?
Its Activity is “Active; Displayed Similar Effect With That Exhibited By Alendronate”.

— ChEMBL document CHEMBL6120947, “Synthesis and Antiosteoporotic Characterization of Diselenyl Maleimides: Discovery of a Potent Agent for the Treatment of Osteoporosis by Targeting RANKL” (J Med Chem, 2024)
